Measured values published in patent US20230201213A1, “USE OF EZH2 INHIBITORS FOR TREATING CANCER” (Epizyme, Inc., priority 2020, published 2023).
Where “and” joins values, the source holds several entries; their conditions need not be identical. Equal values may be shown once.

What was measured:
Type in all cases: in vivo, human
stromal B cells = assay: Multiplexed immunofluorescence (anti-CD20) of paired pre-/post-dose tumor biopsies, phase 2 mesothelioma study: stromal compartment
Description: (§1) In this example, subjects were enrolled in a phase 2, multicenter, open-label, 2-part, single-arm, 2-stage study to assess PK, safety and efficacy of continuous oral dosing with tazemetostat 800 mg, twice daily in adult subjects with relapsed or refractory malignant mesothelioma. Subjects continued on study treatment until disease progression, development of an unacceptable toxicity, withdrawal of consent, or termination of the study. Assessments of clinical response were performed about every 6 weeks while on study. Subjects discontinued study treatment at the time of disease progression, development of an unacceptable toxicity, withdrawal of consent, or termination of the study.
(§2) Tumor tissue biopsy samples were collected for pre-dose tumor sampling at screening and post-dose at or following the first or second tumor assessments (Cycle 3 or 5) according to local clinical site procedures, and tissue blocks processed for formalin fixation and paraffin embedding (FFPE). These FFPE samples were stored at ambient temperature. Pairs of pre- and post-treatment samples were available from 12 subjects. FFPE tissue blocks were available for 9 cases (18 tissue samples) and slides from 3 subjects were available.
(§3) Preparation of tumor tissue was performed as follows: tumor tissue sections of 4-5 micron thickness containing representative tumor cells as determined by a trained pathologist were serially-cut from the same block for two patient cases. Sections were mounted on Superfrost plus slides (Fisherbrand™) and air-dried overnight. Where possible, sections from pre- and post-treatment from the same patient case were mounted on the same slide to reduce reagent use and to diminish technical variability of multiplex, serial antibody staining between pre- and post-treatment samples. Pre- and post-treatment samples passed QC evaluation for 10 biopsy pairs, and these samples were advanced to multiplexed immunofluorescence (IF) staining.
(§4) IF staining of a panel of pairs of Cy3 and Cy5-labeled antibodies was performed. Initially an autofluorescence removal process was conducted. Subsequently, 8 rounds of antibody staining were done with deactivation of the fluorescent dyes via alkaline oxidation occurring prior to each subsequent round of antibody staining.
(§5) As many regions of interest (ROI) were selected for spectral analysis for each sample, and the number ranged from 5-39 across the collection of samples. Few of the ROI failed QC for each sample, typically no more than 1-2 in each sample. There resulting number of ROI successfully imaged and analyzed ranged from 4-39. In toto, 340 of 355 ROI passed QC assessment (95.8%).
(§6) B cell content based on the number of individual cells stained with anti-CD20 in intratumoral and stromal compartments was determined and B cell density was calculated on a mm^2 basis. Creation of intratumoral/stromal masks using PanCK and EMA staining allowed separation of intratumoral from stromal signals. The mean of B cell density from each ROI that passed QC was calculated for each pre- and post-treatment biopsy sample.

[1] = test system: tumor-infiltrating B cells; assay: Bulk RNA-sequencing of pre-/post-tazemetostat epithelioid sarcoma tumor samples; conditions: post- vs pre-tazemetostat
Description: as §1, with “open-label,” for “open-label, 2-part,”, “safety, tolerability” for “PK, safety”, “daily and 1600 mg once daily” for “daily”, “INI1-negative tumors” for “relapsed”, “relapsed/refractory synovial sarcoma. The patient cohorts in the study also included patients with epithelioid sarcoma.” for “refractory malignant mesothelioma.”, “8” for “6”
Tumor tissue biopsy samples from patients with epithelioid sarcoma were collected for pre-dose tumor sampling at screening and post-dose at or following the first or second tumor assessments (Cycle 3 or 5) according to local clinical site procedures, and tissue blocks processed for formalin fixation and paraffin embedding (FFPE), These FFPE samples were stored at ambient temperature. Pairs of pre- and post-treatment samples were available from 22 subjects.
Pre- and post-tazemetostat samples were analyzed using bulk RNA-sequencing to determine specific gene expression changes and also tumor-infiltrating B cell signatures. Several different B cell signatures and one Macrophage signature were analyzed including B cell memory_CIBERSORT, B cell memory_CIBERSORT-ABS, B cell memory_XCELL, B cell naïve_CIBERSORT, B cell naïve_CIBERSORT-ABS. B cell naïve_XCELL, B cell plasma_CIBERSORT, B cell plasma_CIBERSORT-ABS, B cell plasma_XCELL, B cell_EPIC, B cell_MCPCOUNTER, B cell_QUANTISEQ, B cell_TIMER, B cell_XCELL, Class-switched memory B cell_XCELL, and Macrophage_EPIC. […] Finally, two B cell-specific marker genes, CD19 and CD20, were also analyzed in pre- and post-tazemetostat administration samples.

tumor-associated B cells = assay: RNA-SEQ gene signature analysis of pre-/post-tazemetostat mesothelioma tumor samples; conditions: post- vs pre-tazemetostat
Description: as §1, §2
The pre- and post-tazemetostat samples were also analyzed using RNA-SEQ to determine if the decrease in intratumoral B cells and stromal B cells could be observed genetically.

intratumoral B cells = assay: Multiplexed immunofluorescence (anti-CD20) of paired pre-/post-dose tumor biopsies, phase 2 mesothelioma study: intratumoral compartment
Description: as §1, §2, §3, §4, §5, §6

[2] = 10 mesothelioma patients, post- vs pre-dose
[3] = mesothelioma, paired biopsies of 10 patients
[4] = one line per patient (Pt ID), post-dose biopsy (Cycle 3 or 5), tazemetostat 800 mg twice daily oral, relapsed or refractory malignant mesothelioma, CD20 staining, mean of ROI
[5] = one line per patient (Pt ID), post-dose vs pre-dose biopsy, 800 mg twice daily, mesothelioma, negative = increase

CCN(c1cc(-c2ccc(CN3CCOCC3)cc2)cc(C(=O)NCc2c(C)cc(C)[nH]c2=O)c1C)C1CCOCC1 [tazemetostat]
% decrease in stromal B cell density (mean of means) (stromal B cells; [2]): 90% | median % decrease in stromal B cell density (stromal B cells; [2]): 99% | B cell post-tazemetostat stromal, mean of means (stromal B cells; mean over 10 patients, post-dose, pre-dose mean of means 184): 18 cell/mm^2 | cases in which number and density of stromal B cells decreased to zero (stromal B cells; mesothelioma, 10 patients): 5 cases | patients with a decrease of stromal B cells (stromal B cells; [3]): 9/10 | B cell post-tazemetostat stromal Mean (cell/mm^2) (stromal B cells; [4]): 0 cell/mm^2 (5×) and 1 cell/mm^2 and 3 cell/mm^2 and 101 cell/mm^2 and 72 cell/mm^2 and 6 cell/mm^2 | % decrease B cell per mm^2 in post-dose samples (stromal) (stromal B cells; [5]): 100% (4×) and 99% (3×) and 90% and −418% and 29% | relative expression levels of several B cell signatures ([1]; FIG. 7A and 7B): showed decreases in relative expression levels | level of CD19 (B cell-specific marker gene) ([1]; FIG. 8): decreased | level of CD20 (B cell-specific marker gene) ([1]; FIG. 8): decreased | macrophage gene signature (Marcophage_EPIC) (tumor-associated B cells): showed no change | relative expression level of six B cell gene signatures (B cell memory_XCELL, B cell_MCPCOUNTER, B cell naïve_CIBERSORT, B cell_QUANTISEQ, B cell naïve_CIBERSORT-ABS, B cell_XCELL) (tumor-associated B cells; FIG. 6): showed a decrease in relative expression level | % decrease in intratumoral B cell density (mean of means) (intratumoral B cells; [2]): 77% | median % decrease in intratumoral B cell density (intratumoral B cells; [2]): 100% | B cell post-tazemetostat intratumoral, mean of means (intratumoral B cells; mean over 10 patients, post-dose, pre-dose mean of means 35): 8 cell/mm^2 | cases in which number and density of intratumoral B cells decreased to zero (intratumoral B cells; mesothelioma, 10 patients): 5 cases | patients with a decrease of intratumoral B cells (intratumoral B cells; [3]): 8/10 | B cell post-tazemetostat intratumoral Mean (cell/mm^2) (intratumoral B cells; [4]): 0 cell/mm^2 (5×) and 3 cell/mm^2 and 43 cell/mm^2 and 11 cell/mm^2 and 22 cell/mm^2 and 2 cell/mm^2 | % decrease B cell per sqmm in post-dose samples (intratumoral) (intratumoral B cells; [5]): 100% (5×) and 95% and −529% and 25% and 90% | increase in B cell content in one sample (intratumoral) (intratumoral B cells; one sample that biased the mean decrease): > 500%
